Assay results from patent US8158764B2 (priority 2006, dated 2012).
pKi: −log10 of the molar value. “And” between values parts separate entries of the source, which are not always exact repeats. Equal values may be shown once.

Legend:
human μ receptors = biological target: T1, human μ receptors (Homo sapiens, UniProt P35372); test: biochemical; format: binding
T1 construct: expressed in transfected cells; host or cells: HEK-293

[1] = Activity and toxicity of the 3-methoxy derivative (test not specified); conditions: in words
κ receptors = biological target: T2, κ receptors (Cavia porcellus, UniProt P41144); test: Affinity to κ receptors, [3H]U-69593 binding on cerebellum homogenates; parameters: species or system guinea-pigs; conditions: for Ki: guinea-pig cerebellum, 0.7 nM [3H]U-69593, read-out: Ki (nM) κ Receptor
T2 construct: homogenates of guinea-pigs cerebellum (250 μg of protein); from tissue; host or cells: guinea-pig cerebellum
T2 sequence (P41144 whole entry): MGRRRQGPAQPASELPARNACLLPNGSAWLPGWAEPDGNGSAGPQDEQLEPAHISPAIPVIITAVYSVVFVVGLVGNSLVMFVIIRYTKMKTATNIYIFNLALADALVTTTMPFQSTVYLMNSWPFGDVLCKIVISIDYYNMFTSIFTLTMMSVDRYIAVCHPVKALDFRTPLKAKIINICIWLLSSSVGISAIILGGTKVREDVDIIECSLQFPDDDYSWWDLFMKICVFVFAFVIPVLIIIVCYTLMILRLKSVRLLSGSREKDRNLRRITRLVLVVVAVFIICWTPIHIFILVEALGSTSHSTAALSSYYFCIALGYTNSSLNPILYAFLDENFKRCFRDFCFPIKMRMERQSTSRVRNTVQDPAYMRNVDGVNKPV
Protocol: (§1) The non specific binding was determined in the presence of 10 μM of naltrexone. After incubation, samples were rapidly filtered through glass fibers (GF/B, Packard), previously incubated with 0.3% of polyethyleneimine and rinsed several times with 50 mM of cold Tris-HCl using a “96-sample cell harvester” (Unifilter, Packard). Filters were afterwards dried and the radioactivity was counted.

[2] = Tail flick test (analgesic activity); format: in vivo, mouse; parameters: AUC, tail flick test: unit not given here; conditions: for duration of the analgesic activity compared with morphine: in words, tail flick and hot plate tests; for ED50 / Max Effect (time), tail flick test: mouse, intravenous
Protocol: The “Tail flick” test (test of D'Amour & Smith, 1941, Pharmacol Exp Ther; 72: 74-79) consists in placing the tail of a mouse, after administration of a product, in front of an infrared source in order to produce a nociceptive stimulus (a surface temperature of 55° C.). The reaction time (RT) of the mouse (latency between the start of the light beam and the moment the mouse withdraws its tail) was measured in duplicate at 8 times spread from […] after administration of the product. A maximal 10 second-period has been chosen as the maximal reaction time in order to avoid any tissue damage for the animal.
Products were intravenously-administered at doses comprised between 0.5 and 8 mg/kg (8 mice per group).
Two measures of reaction time were realized before administration of the product for each mouse so as to establish a base line.
The MPE % represents the percentage of possible maximal effect and corresponds to the following formula: […]

[3] = Hot plate test (analgesic activity); format: in vivo; conditions: mouse, intravenous
δ receptors = biological target: T3, δ receptors (Homo sapiens, UniProt P41143); test: Affinity to δ receptors, [3H]DADLE binding on cell membrane homogenates (CHO cells)
T3 construct: expressed in transfected cells; host or cells: CHO
T3 sequence (P41143 whole entry): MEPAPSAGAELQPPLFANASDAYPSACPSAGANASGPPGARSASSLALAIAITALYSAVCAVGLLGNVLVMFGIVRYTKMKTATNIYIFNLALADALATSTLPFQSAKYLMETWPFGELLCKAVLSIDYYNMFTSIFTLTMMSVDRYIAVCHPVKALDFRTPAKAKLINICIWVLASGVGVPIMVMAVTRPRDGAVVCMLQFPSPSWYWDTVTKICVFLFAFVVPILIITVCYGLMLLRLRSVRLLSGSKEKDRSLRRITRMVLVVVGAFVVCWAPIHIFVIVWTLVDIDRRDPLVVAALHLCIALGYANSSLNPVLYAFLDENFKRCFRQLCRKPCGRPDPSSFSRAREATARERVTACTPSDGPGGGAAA
Protocol: as §1

κ receptor [4] = biological target: T4, κ receptor (Oryctolagus cuniculus, UniProt G1SJ19); test: Antagonist activity on κ receptor, electrically stimulated rabbit vas deferens; format: biochemical
T4 construct: using prostatic segments of rabbits' deferens vas; from tissue; host or cells: rabbit vas deferens (prostatic segments)
T4 sequence (G1SJ19 1-383): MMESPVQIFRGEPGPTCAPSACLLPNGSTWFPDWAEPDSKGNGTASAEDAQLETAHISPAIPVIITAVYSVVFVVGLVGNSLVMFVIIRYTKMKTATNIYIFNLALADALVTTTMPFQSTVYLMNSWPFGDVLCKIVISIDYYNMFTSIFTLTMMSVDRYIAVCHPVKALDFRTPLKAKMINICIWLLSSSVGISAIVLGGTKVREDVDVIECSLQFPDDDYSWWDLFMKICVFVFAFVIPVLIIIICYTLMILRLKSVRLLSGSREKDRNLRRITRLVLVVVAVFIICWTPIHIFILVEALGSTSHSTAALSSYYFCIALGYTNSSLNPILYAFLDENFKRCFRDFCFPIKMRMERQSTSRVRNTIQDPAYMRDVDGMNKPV
Protocol: The agonist/antagonist activity on K receptors of compounds according to the invention was estimated by using prostatic segments of rabbits' deferens vas, stretched and stimulated by an electric current of 0.1 Hz during 1 msec.
In order to test an antagonist activity, a response control (peak of contraction of the tissue) was obtained by exposing tissues to a high concentration (0.1 μM) in specific agonist U-69593.
Tissues were then exposed to growing concentrations of the compound according to the invention or to the specific agonist. The various concentrations were cumulated and each concentration was maintained in contact with the tissue until a stable response was obtained or up to […].
An antagonist response was observed when the amplitude of peaks of contractions provoked by electric stimulation was similar to the one observed with the nor-BNI.
The measured parameter was a maximal change of amplitude of the peaks of contractions provoked by electric stimulation with various concentrations of the compound.

[5] = Intestinal transit in mice
κ receptor [6] = biological target: T4, κ receptor; format: biochemical, rabbit

T1 sequence (P35372 whole entry): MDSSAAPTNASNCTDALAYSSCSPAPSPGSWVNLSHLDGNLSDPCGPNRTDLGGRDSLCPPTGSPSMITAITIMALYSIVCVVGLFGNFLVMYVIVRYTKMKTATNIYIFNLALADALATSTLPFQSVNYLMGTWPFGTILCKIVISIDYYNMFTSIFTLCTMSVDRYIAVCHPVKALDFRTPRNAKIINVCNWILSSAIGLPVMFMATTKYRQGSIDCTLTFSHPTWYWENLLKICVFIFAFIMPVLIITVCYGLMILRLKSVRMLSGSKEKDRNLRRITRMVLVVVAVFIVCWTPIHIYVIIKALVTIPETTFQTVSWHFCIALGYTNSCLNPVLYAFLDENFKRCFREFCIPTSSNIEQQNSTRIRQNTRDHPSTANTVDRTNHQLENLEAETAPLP

SMILES	pKi (human μ receptors)	Ki (κ receptors)	AUC, tail flick test ([2]; dose 1 mg/kg iv)	AUC, tail flick test ([2]; dose 2 mg/kg iv)	AUC, tail flick test ([2]; dose 4 mg/kg iv)	AUC, tail flick test ([2]; dose 8 mg/kg iv)	duration of the analgesic activity compared with morphine [2]	ED50 [2]	Max Effect (time), tail flick test [2]	ED50 [3]	Effet max (time), hot plate test [3]	other results
COc1ccc2c3c1OC1C(OC4OC(C(=O)NCCS)C(O)C(O)C4O)C=CC4C(C2)N(C)CCC341 (centres unmarked) [Compound C6G-cya]	7.96	100 nM	–	–	–	–	–	–	–	–	–	activity of the 3-methoxy substituted compound [1]: inactive; toxicity of the 3-methoxy substituted compound [1]: toxic
CCOc1ccc2c3c1OC1C(OC4OC(C(=O)NCCS)C(O)C(O)C4O)C=CC4C(C2)N(C)CCC341 (centres unmarked) [Compound M3Et-6G-cya]	7.89	220 nM	1047.85	2538.93	5012.90	6059.22	much longer	2.04 mg/kg	120 min	2.75 mg/kg	120 min	–
CCOc1ccc2c3c1O[C@H]1[C@@H](O[C@@H]4O[C@H](C(=O)NCCSSCCC(=O)Nc5cccc6c7c([nH]c56)[C@@H]5Oc6c(O)ccc8c6[C@@]56CCN(CC5CC5)[C@H](C8)[C@]6(O)C7)[C@@H](O)[C@H](O)[C@H]4O)C=CC4[C@@H](C2)N(C)CC[C@@]341 (some centres unmarked) [M3Et-6G-cya-3MP-NTI]	–	–	–	2576	4410	5733	–	2.9 mg/kg	120 min	–	–	–
CCOc1ccc2c3c1OC1C(OC4OC(C(=O)NCCSSCCNC(=O)C5OC(OC6C=CC7C8Cc9ccc(OCC)c%10c9C7(CCN8C)C6O%10)C(O)C(O)C5O)C(O)C(O)C4O)C=CC4C(C2)N(C)CCC341 (centres unmarked) [M3Et-6G-cya-cya-M3Et-6G]	7.85	25 nM	1233.75	4824.51	5915.16	5817.46	much longer	1.32 mg/kg	120 min	1.35 mg/kg	120 min	pKi (δ receptors): < 6.00; antagonist activity: response in % of the response control at U-69593 (0.1 μM) (κ receptor [4]; compound 0.03 μM): 100%; antagonist activity: response in % of the response control at U-69593 (0.1 μM) (κ receptor [4]; compound 0.3 μM): 100%; antagonist activity: response in % of the response control at U-69593 (0.1 μM) (κ receptor [4]; compound 3 μM): 92%; antagonist activity: response in % of the response control at U-69593 (0.1 μM) (κ receptor [4]; compound 30 μM): 71%; agonist/antagonist behaviour on κ receptor (κ receptor [4]; in words): behaves as a κ receptor antagonist; transit inhibition ([5]; at the maximal analgesic effect after iv injection at ED50): about 90%; analgesia when transit speed becomes normal ([5]; between 10 and 12 hours after injection): 50%; effect on transit while analgesic activity is maintained at maximum ([5]; in words): transit only slows down; improvement of affinity for κ receptors (factor) (κ receptors; compared with morphine): 6; AUC, tail flick test ([2]; dose 0.5 mg/kg iv): 617.79; duration of maximum analgesic activity ([2]; injected at two-fold ED50, no supplementary dose): at least 6 hours; agonist activity: response in % of the response control at U-69593 (κ receptor [6]): 0% and −4% and −3%
Oc1ccc2c3c1O[C@H]1c4[nH]c5c(c4C[C@@]4(O)[C@@H](C2)N(CC2CC2)CC[C@]314)C[C@@]1(O)[C@H]2Cc3ccc(O)c4c3[C@@]1(CCN2CC1CC1)[C@H]5O4 [nor-BNI, nor-binaltorphimine, reference compound]	–	–	–	–	–	–	–	–	–	–	–	antagonist activity: response in % of the response control at U-69593 (0.1 μM) (κ receptor [4]; compound 0.1 nM): 80%; antagonist activity: response in % of the response control at U-69593 (0.1 μM) (κ receptor [4]; compound 0.3 nM): 55%; antagonist activity: response in % of the response control at U-69593 (0.1 μM) (κ receptor [4]; compound 1 nM): −1%
